Key:
Format in all cases: in vivo
Cotton [1] = experiment: Post-emergence treatment, phytotoxicity to cotton; conditions: post-emergence (about 3 leaf stage), 1,000 g/ha, 4 weeks after spraying, scale 0 to 10 (0: no effects, 10: complete death)
Experimental: (§1) A rectangular plastic pot having a surface area of 300 cm^2 was filled with sandy loam soil and mixed bed soil which were mixed at a ratio of 1:1, and then, barnyardrass (Echinochloa crusgalli), large crabgrass (Digitaria sanguinalis), blackgrass (Alopecurus myosuroides), and annual bluegrass (Poa annua), which are grass weeds, were seeded thereto. In a pot that was prepared as described above, seeds of corn, soybean, cotton, wheat, and rice were seeded. The pots were irrigated, and one day after, chemicals were sprayed thereto. The spraying was performed by using a track sprayer (R&D Sprayer, USA) equipped with a Teejet 8002 (Spraying Systems Co., USA) nozzle, and a spraying amount was adjusted at 300 L/ha. A spraying solution was prepared by dissolving test materials or references in acetone and adding the same amount of 0.2%(v/v) tween 20 aqueous solution thereto. Application rates were 500, 250, 125, and 62.5 g/ha. The pots were placed in a greenhouse in which during day, the temperature was maintained at a temperature of 25 to 30° C., and during night, the temperature was maintained at a temperature of 15 to 25° C., and the pots were periodically irrigated. Four weeks after the spraying the test materials or References, effects and phytotoxicity of the respective weeds and crops were evaluated in a scale of 0 to 10 (0: no effects, 10: complete death), and results thereof are shown in Table 4 below.
(§2) Pots containing crops and weeds were prepared in the same manner as in Example 7, and then, in the second week in which crops and weeds entered into about 3 leaf stage, the test materials and the references were sprayed thereto in the same manner as described above. The rates were 1,000, 500, 250, and 125 g/ha. Four weeks after the spraying of the test materials or the references, herbicidal efficacy and phytotoxicity to the respective weeds and crops were evaluated in a scale of 0 to 10 (0: no effects, 10: complete death).

Digitaria sanguinalis [2] = experiment: Pre-emergence treatment, herbicidal efficacy on large crabgrass; conditions: 4 weeks after spraying, scale 0 to 10
Experimental: as §1

Corn [3] = experiment: Pre-emergence treatment, phytotoxicity to corn; conditions: 500 g/ha, 4 weeks after spraying, scale 0 to 10 (0: no effects, 10: complete death)
Experimental: as §1

Corn [4] = experiment: Post-emergence treatment, phytotoxicity to corn; conditions: post-emergence (about 3 leaf stage), 1,000 g/ha, 4 weeks after spraying, scale 0 to 10 (0: no effects, 10: complete death)
Experimental: as §1, §2

Alopecurus myosuroides [5] = experiment: Pre-emergence treatment, herbicidal efficacy on blackgrass; conditions: 4 weeks after spraying, scale 0 to 10
Experimental: as §1

Soybean [6] = experiment: Post-emergence treatment, phytotoxicity to soybean; conditions: post-emergence (about 3 leaf stage), 1,000 g/ha, 4 weeks after spraying, scale 0 to 10 (0: no effects, 10: complete death)
Experimental: as §1, §2

Poa annua [7] = experiment: Post-emergence treatment, herbicidal efficacy on annual bluegrass; conditions: 4 weeks after spraying, scale 0 to 10
Experimental: as §1, §2

Digitaria sanguinalis [8] = experiment: Post-emergence treatment, herbicidal efficacy on large crabgrass; conditions: 4 weeks after spraying, scale 0 to 10
Experimental: as §1, §2

Rice [9] = experiment: Pre-emergence treatment, phytotoxicity to rice; conditions: 500 g/ha, 4 weeks after spraying, scale 0 to 10 (0: no effects, 10: complete death)
Experimental: as §1

Echinochloa crusgalli [10] = experiment: Pre-emergence treatment, herbicidal efficacy on barnyardgrass; conditions: 4 weeks after spraying
Experimental: as §1

Poa annua [11] = experiment: Pre-emergence treatment, herbicidal efficacy on annual bluegrass; conditions: 4 weeks after spraying, scale 0 to 10
Experimental: as §1

Alopecurus myosuroides [12] = experiment: Post-emergence treatment, herbicidal efficacy on blackgrass; conditions: 4 weeks after spraying, scale 0 to 10
Experimental: as §1, §2

Cotton [13] = experiment: Pre-emergence treatment, phytotoxicity to cotton; conditions: 500 g/ha, 4 weeks after spraying, scale 0 to 10 (0: no effects, 10: complete death)
Experimental: as §1

Echinochloa crusgalli [14] = experiment: Post-emergence treatment, herbicidal efficacy on barnyardgrass; conditions: 4 weeks after spraying, scale 0 to 10
Experimental: as §1, §2

Wheat [15] = experiment: Pre-emergence treatment, phytotoxicity to wheat; conditions: 500 g/ha, 4 weeks after spraying, scale 0 to 10 (0: no effects, 10: complete death)
Experimental: as §1

Soybean [16] = experiment: Pre-emergence treatment, phytotoxicity to soybean; conditions: 500 g/ha, 4 weeks after spraying, scale 0 to 10 (0: no effects, 10: complete death)
Experimental: as §1

Wheat [17] = experiment: Post-emergence treatment, phytotoxicity to wheat; conditions: post-emergence (about 3 leaf stage), 1,000 g/ha, 4 weeks after spraying, scale 0 to 10 (0: no effects, 10: complete death)
Experimental: as §1, §2

Rice [18] = experiment: Post-emergence treatment, phytotoxicity to rice; conditions: post-emergence (about 3 leaf stage), 1,000 g/ha, 4 weeks after spraying, scale 0 to 10 (0: no effects, 10: complete death)
Experimental: as §1, §2

[19] = 500 g/ha, scale 0 to 10 (0: no effects, 10: complete death)

Cc1ccc(C2=NOC(C)(COCc3c(F)cccc3F)C2)cc1 (stereo not drawn) [Reference G]
4: Herbicidal efficacy, Digitaria sanguinalis (Digitaria sanguinalis [2]; 125 g/ha) | Herbicidal efficacy, Poa annua (Poa annua [7]; post-emergence, 500 g/ha) | Herbicidal efficacy, Digitaria sanguinalis (Digitaria sanguinalis [8]; post-emergence, 500 g/ha) | Herbicidal efficacy, Poa annua (Poa annua [11]; 125 g/ha)
8: Herbicidal efficacy, Digitaria sanguinalis (Digitaria sanguinalis [2]; 250 g/ha) | Herbicidal efficacy, Poa annua (Poa annua [11]; 250 g/ha)
0: Phytotoxicity, Cotton (Cotton [1]) | Phytotoxicity, Corn (Corn [3]) | Phytotoxicity, Corn (Corn [4]) | Herbicidal efficacy, Alopecurus myosuroides (Alopecurus myosuroides [5]; 62.5 g/ha) | Herbicidal efficacy, Alopecurus myosuroides (Alopecurus myosuroides [5]; 125 g/ha) | Herbicidal efficacy, Alopecurus myosuroides (Alopecurus myosuroides [5]; 250 g/ha) | Herbicidal efficacy, Poa annua (Poa annua [7]; post-emergence, 125 g/ha) | Herbicidal efficacy, Digitaria sanguinalis (Digitaria sanguinalis [8]; post-emergence, 125 g/ha) | Herbicidal efficacy, Digitaria sanguinalis (Digitaria sanguinalis [8]; post-emergence, 250 g/ha) | Phytotoxicity, Rice (Rice [9]) | Herbicidal efficacy, Echinochloa crusgalli (Echinochloa crusgalli [10]; 62.5 g/ha, scale 0 to 10) | Herbicidal efficacy, Alopecurus myosuroides (Alopecurus myosuroides [12]; post-emergence, 125 g/ha) | Herbicidal efficacy, Alopecurus myosuroides (Alopecurus myosuroides [12]; post-emergence, 250 g/ha) | Phytotoxicity, Cotton (Cotton [13]) | Herbicidal efficacy, Echinochloa crusgalli (Echinochloa crusgalli [14]; post-emergence, 125 g/ha) | Phytotoxicity, Wheat (Wheat [15]) | Phytotoxicity, Soybean (Soybean [16]) | Phytotoxicity, Wheat (Wheat [17]) | Phytotoxicity, Rice (Rice [18])
1: Herbicidal efficacy, Digitaria sanguinalis (Digitaria sanguinalis [2]; 62.5 g/ha) | Herbicidal efficacy, Poa annua (Poa annua [7]; post-emergence, 250 g/ha) | Herbicidal efficacy, Poa annua (Poa annua [11]; 62.5 g/ha)
2: Phytotoxicity, Soybean (Soybean [6]) | Herbicidal efficacy, Alopecurus myosuroides (Alopecurus myosuroides [12]; post-emergence, 500 g/ha) | Herbicidal efficacy, Echinochloa crusgalli (Echinochloa crusgalli [14]; post-emergence, 250 g/ha)
10: Herbicidal efficacy, Digitaria sanguinalis (Digitaria sanguinalis [2]; 500 g/ha) | Herbicidal efficacy, Echinochloa crusgalli (Echinochloa crusgalli [10]; [19])
3: Herbicidal efficacy, Alopecurus myosuroides (Alopecurus myosuroides [5]; 500 g/ha) | Herbicidal efficacy, Echinochloa crusgalli (Echinochloa crusgalli [10]; 125 g/ha, scale 0 to 10) | Herbicidal efficacy, Alopecurus myosuroides (Alopecurus myosuroides [12]; post-emergence, 1,000 g/ha)
6: Herbicidal efficacy, Poa annua (Poa annua [7]; post-emergence, 1,000 g/ha) | Herbicidal efficacy, Digitaria sanguinalis (Digitaria sanguinalis [8]; post-emergence, 1,000 g/ha) | Herbicidal efficacy, Echinochloa crusgalli (Echinochloa crusgalli [14]; post-emergence, 1,000 g/ha)
9: Herbicidal efficacy, Poa annua (Poa annua [11]; 500 g/ha)
5: Herbicidal efficacy, Echinochloa crusgalli (Echinochloa crusgalli [14]; post-emergence, 500 g/ha)
7: Herbicidal efficacy, Echinochloa crusgalli (Echinochloa crusgalli [10]; 250 g/ha, scale 0 to 10)

CC1(COCc2c(F)cccc2Cl)CC(c2ccccc2)=NO1 (stereo not drawn) [Reference H]
5: Herbicidal efficacy, Digitaria sanguinalis (Digitaria sanguinalis [8]; post-emergence, 1,000 g/ha)
9: Herbicidal efficacy, Alopecurus myosuroides (Alopecurus myosuroides [5]; 500 g/ha) | Herbicidal efficacy, Echinochloa crusgalli (Echinochloa crusgalli [10]; [19])
1: Herbicidal efficacy, Digitaria sanguinalis (Digitaria sanguinalis [8]; post-emergence, 500 g/ha)
4: Herbicidal efficacy, Poa annua (Poa annua [7]; post-emergence, 1,000 g/ha) | Herbicidal efficacy, Echinochloa crusgalli (Echinochloa crusgalli [14]; post-emergence, 1,000 g/ha)
2: Herbicidal efficacy, Digitaria sanguinalis (Digitaria sanguinalis [2]; 250 g/ha) | Phytotoxicity, Corn (Corn [3]) | Herbicidal efficacy, Alopecurus myosuroides (Alopecurus myosuroides [5]; 250 g/ha) | Herbicidal efficacy, Poa annua (Poa annua [7]; post-emergence, 500 g/ha) | Herbicidal efficacy, Echinochloa crusgalli (Echinochloa crusgalli [10]; 250 g/ha, scale 0 to 10) | Herbicidal efficacy, Poa annua (Poa annua [11]; 250 g/ha)
10: Herbicidal efficacy, Digitaria sanguinalis (Digitaria sanguinalis [2]; 500 g/ha)
8: Herbicidal efficacy, Poa annua (Poa annua [11]; 500 g/ha)
0: Phytotoxicity, Cotton (Cotton [1]) | Herbicidal efficacy, Digitaria sanguinalis (Digitaria sanguinalis [2]; 62.5 g/ha) | Herbicidal efficacy, Digitaria sanguinalis (Digitaria sanguinalis [2]; 125 g/ha) | Phytotoxicity, Corn (Corn [4]) | Herbicidal efficacy, Alopecurus myosuroides (Alopecurus myosuroides [5]; 62.5 g/ha) | Herbicidal efficacy, Alopecurus myosuroides (Alopecurus myosuroides [5]; 125 g/ha) | Phytotoxicity, Soybean (Soybean [6]) | Herbicidal efficacy, Poa annua (Poa annua [7]; post-emergence, 125 g/ha) | Herbicidal efficacy, Poa annua (Poa annua [7]; post-emergence, 250 g/ha) | Herbicidal efficacy, Digitaria sanguinalis (Digitaria sanguinalis [8]; post-emergence, 125 g/ha) | Herbicidal efficacy, Digitaria sanguinalis (Digitaria sanguinalis [8]; post-emergence, 250 g/ha) | Phytotoxicity, Rice (Rice [9]) | Herbicidal efficacy, Echinochloa crusgalli (Echinochloa crusgalli [10]; 62.5 g/ha, scale 0 to 10) | Herbicidal efficacy, Echinochloa crusgalli (Echinochloa crusgalli [10]; 125 g/ha, scale 0 to 10) | Herbicidal efficacy, Poa annua (Poa annua [11]; 62.5 g/ha) | Herbicidal efficacy, Poa annua (Poa annua [11]; 125 g/ha) | Herbicidal efficacy, Alopecurus myosuroides (Alopecurus myosuroides [12]; post-emergence, 125 g/ha) | Herbicidal efficacy, Alopecurus myosuroides (Alopecurus myosuroides [12]; post-emergence, 250 g/ha) | Herbicidal efficacy, Alopecurus myosuroides (Alopecurus myosuroides [12]; post-emergence, 500 g/ha) | Herbicidal efficacy, Alopecurus myosuroides (Alopecurus myosuroides [12]; post-emergence, 1,000 g/ha) | Phytotoxicity, Cotton (Cotton [13]) | Herbicidal efficacy, Echinochloa crusgalli (Echinochloa crusgalli [14]; post-emergence, 125 g/ha) | Herbicidal efficacy, Echinochloa crusgalli (Echinochloa crusgalli [14]; post-emergence, 250 g/ha) | Herbicidal efficacy, Echinochloa crusgalli (Echinochloa crusgalli [14]; post-emergence, 500 g/ha) | Phytotoxicity, Wheat (Wheat [15]) | Phytotoxicity, Soybean (Soybean [16]) | Phytotoxicity, Wheat (Wheat [17]) | Phytotoxicity, Rice (Rice [18])

Cc1ccccc1C1=NOC(C)(COCc2ccccc2F)C1 (stereo not drawn) [Reference D]
3: Herbicidal efficacy, Alopecurus myosuroides (Alopecurus myosuroides [5]; 250 g/ha) | Herbicidal efficacy, Echinochloa crusgalli (Echinochloa crusgalli [10]; 125 g/ha, scale 0 to 10) | Herbicidal efficacy, Alopecurus myosuroides (Alopecurus myosuroides [12]; post-emergence, 500 g/ha)
0: Phytotoxicity, Cotton (Cotton [1]) | Herbicidal efficacy, Digitaria sanguinalis (Digitaria sanguinalis [2]; 62.5 g/ha) | Phytotoxicity, Corn (Corn [3]) | Phytotoxicity, Corn (Corn [4]) | Herbicidal efficacy, Alopecurus myosuroides (Alopecurus myosuroides [5]; 62.5 g/ha) | Herbicidal efficacy, Alopecurus myosuroides (Alopecurus myosuroides [5]; 125 g/ha) | Phytotoxicity, Soybean (Soybean [6]) | Herbicidal efficacy, Poa annua (Poa annua [7]; post-emergence, 125 g/ha) | Herbicidal efficacy, Poa annua (Poa annua [7]; post-emergence, 250 g/ha) | Herbicidal efficacy, Digitaria sanguinalis (Digitaria sanguinalis [8]; post-emergence, 125 g/ha) | Herbicidal efficacy, Digitaria sanguinalis (Digitaria sanguinalis [8]; post-emergence, 250 g/ha) | Phytotoxicity, Rice (Rice [9]) | Herbicidal efficacy, Poa annua (Poa annua [11]; 62.5 g/ha) | Herbicidal efficacy, Alopecurus myosuroides (Alopecurus myosuroides [12]; post-emergence, 125 g/ha) | Herbicidal efficacy, Alopecurus myosuroides (Alopecurus myosuroides [12]; post-emergence, 250 g/ha) | Phytotoxicity, Cotton (Cotton [13]) | Herbicidal efficacy, Echinochloa crusgalli (Echinochloa crusgalli [14]; post-emergence, 125 g/ha) | Herbicidal efficacy, Echinochloa crusgalli (Echinochloa crusgalli [14]; post-emergence, 250 g/ha) | Phytotoxicity, Wheat (Wheat [15]) | Phytotoxicity, Soybean (Soybean [16]) | Phytotoxicity, Wheat (Wheat [17]) | Phytotoxicity, Rice (Rice [18])
6: Herbicidal efficacy, Digitaria sanguinalis (Digitaria sanguinalis [2]; 250 g/ha) | Herbicidal efficacy, Echinochloa crusgalli (Echinochloa crusgalli [10]; 250 g/ha, scale 0 to 10)
9: Herbicidal efficacy, Alopecurus myosuroides (Alopecurus myosuroides [5]; 500 g/ha)
1: Herbicidal efficacy, Echinochloa crusgalli (Echinochloa crusgalli [10]; 62.5 g/ha, scale 0 to 10) | Herbicidal efficacy, Echinochloa crusgalli (Echinochloa crusgalli [14]; post-emergence, 500 g/ha)
10: Herbicidal efficacy, Digitaria sanguinalis (Digitaria sanguinalis [2]; 500 g/ha) | Herbicidal efficacy, Echinochloa crusgalli (Echinochloa crusgalli [10]; [19])
4: Herbicidal efficacy, Digitaria sanguinalis (Digitaria sanguinalis [8]; post-emergence, 500 g/ha) | Herbicidal efficacy, Alopecurus myosuroides (Alopecurus myosuroides [12]; post-emergence, 1,000 g/ha) | Herbicidal efficacy, Echinochloa crusgalli (Echinochloa crusgalli [14]; post-emergence, 1,000 g/ha)
7: Herbicidal efficacy, Digitaria sanguinalis (Digitaria sanguinalis [8]; post-emergence, 1,000 g/ha)
5: Herbicidal efficacy, Poa annua (Poa annua [7]; post-emergence, 1,000 g/ha) | Herbicidal efficacy, Poa annua (Poa annua [11]; 250 g/ha)
2: Herbicidal efficacy, Digitaria sanguinalis (Digitaria sanguinalis [2]; 125 g/ha) | Herbicidal efficacy, Poa annua (Poa annua [7]; post-emergence, 500 g/ha) | Herbicidal efficacy, Poa annua (Poa annua [11]; 125 g/ha)
8: Herbicidal efficacy, Poa annua (Poa annua [11]; 500 g/ha)
